US9156831B2, “Chemical compounds” (ASTRAZENECA AB, priority 2013, dated 2015)

How the values were obtained:
SNU484 = experiment: Cell proliferation assay (MTS); assay type: cell-based, human
Method: (§2) The sensitivity of a panel of human cancer cell lines to the effects of compounds was determined in a standard proliferation assay.
(§3) Cells were plated in 96 well plates at densities of 1000-6000 cells per well in RPMI media containing 10% FBS. After incubation at 37° C. for 16 hours, various concentrations of compound were added to the assay plates. After incubation for an additional 72 h, the viable cells were determined by the addition of MTS reagent (Promega #3582) to each well for 2 h. MTS is a tetrazolium salt that is bioreduced by metabolically active cells in the presence of an electron coupling reagent to formazan. The formazan product was then quantitated by absorbance at 490 nm, as an indicator of the relative number of live cells. In order to determine the GI50 (concentration at which growth of cells was inhibited by 50%) the relative number of cells present at the time of drug addition was determined by comparison with the MTS readout before the drug was added, and this value was subtracted from the 72 hr value of untreated cells as a measure of cell growth during the assay.

SKHEP1 = experiment: Cell proliferation assay (MTS); assay type: cell-based, human
Method: as §2
(§4) Cells were plated in 96 well plates at densities of 1000-6000 cells per well in RPMI media containing 10% FBS. After incubation at 37° C. for 16 hours, various concentrations of compound were added to the assay plates. After incubation for an additional 72 h, the viable cells were determined by the addition of MTS reagent (Promega #3582) to each well for 2 h. […] The formazan product was then quantitated by absorbance at 490 nm, as an indicator of the relative number of live cells. In order to determine the GI50 (concentration at which growth of cells was inhibited by 50%) the relative number of cells present at the time of drug addition was determined by comparison with the MTS readout before the drug was added, and this value was subtracted from the 72 hr value of untreated cells as a measure of cell growth during the assay.

HLF = experiment: Cell proliferation assay (MTS); assay type: cell-based, human
Method: (§5) The sensitivity of a panel of human cancer cell lines to the effects of compounds was determined in a standard proliferation assay. Cell lines were sourced through the AstraZeneca Cell Bank.
as §3

KG1 = experiment: Cell proliferation assay (MTS); assay type: cell-based, human
Method: as §2, §3

SNU398 = experiment: Cell proliferation assay (MTS); assay type: cell-based, human
Method: as §2, §4

HCC15 = experiment: Cell proliferation assay (MTS); assay type: cell-based, human
Method: as §2, §3

BFTC905 = experiment: Cell proliferation assay (MTS); assay type: cell-based, human
Method: as §2, §4

MOLP8 = experiment: Cell proliferation assay (MTS); assay type: cell-based, human
Method: as §5, §3

SC1 = experiment: Cell proliferation assay (MTS); assay type: cell-based, human
Method: as §2, §4

MCF7 xenograft = experiment: Tumour growth inhibition, MCF7 xenograft model; assay type: in vivo, mouse; conditions: Example 3 alone 25 mg/kg twice daily every day; FIG. 12
Method: MCF7 is an estrogen receptor positive breast tumour cell line carrying a mutation in the PIKC3CA gene (E545K). […] SCID mice (AZ UK) were transplanted subcutaneously (s.c.) with human breast adenocarcinoma cell line MCF7 (ICRF London) to determine anti-tumour activity of PI3 kinase inhibitors. Mice were implanted with a 0.5 mg 21 day oestrogen pellet (Innovative Research of America) 24 hours prior to cell implantation. 5×10^6 cells in 50% matrigel (BD Bioscience) were injected s.c. on the left flank of the animals.
(§1) Animals were randomised into groups of 10-15 when tumours reached a volume of ˜200-300 mm^3 and treatment commenced. Animals were dosed for 3-4 weeks by peroral route, with compound in a suitable vehicle at defined doses and schedules. Tumours were measured two-three times weekly by caliper and volume of tumours calculated using elliptical formula (pi/6×width×width×length).

H2170 = experiment: Cell proliferation assay (MTS); assay type: cell-based, human
Method: as §5, §3

KP4 = experiment: Cell proliferation assay (MTS); assay type: cell-based, human
Method: as §5, §3

HCT116 = experiment: Cell proliferation assay (MTS); assay type: cell-based, human
Method: as §2, §3

H1793 = experiment: Cell proliferation assay (MTS); assay type: cell-based, human
Method: as §2, §3

22RV1 = experiment: Cell proliferation assay (MTS); assay type: cell-based, human
Method: as §2, §3

SKMES1 = experiment: Cell proliferation assay (MTS); assay type: cell-based, human
Method: as §2, §3

SUM52PE = experiment: Cell proliferation assay (MTS); assay type: cell-based, human
Method: as §2, §3

BT549 = experiment: Cell proliferation assay (MTS); assay type: cell-based, human
Method: as §2, §4

BT474 xenograft = experiment: Tumour growth inhibition, BT474 xenograft model; assay type: in vivo, mouse
Method: BT474 is an estrogen receptor positive breast tumour cell lines with elevated Her2 expression and carries a mutation in the PIK3CA gene (K111N). Female Swiss athymic nude mice (swiss nu/nu-AZUK) were transplanted subcutaneously with human epithelial breast ductal carcinoma cell line BT474c (derived in AZ from BT474-ATCC HTB-20) tumours passaged in mice. Mice were implanted with 0.36 mg 60 day oestrogen pellet (Innovative Research of America) 24 hours prior to cell implantation. 5×10^6 cells in 50% matrigel (BD Bioscience) were injected s.c. on the left flank of the animals.
as §1

HEP3B = experiment: Cell proliferation assay (MTS); assay type: cell-based, human
Method: as §2, §3

PANC1005 = experiment: Cell proliferation assay (MTS); assay type: cell-based, human
Method: as §2, §3

SNU739 = experiment: Cell proliferation assay (MTS); assay type: cell-based, human
Method: as §5, §3

LS180 = experiment: Cell proliferation assay (MTS); assay type: cell-based, human
Method: as §2, §4

SNU761 = experiment: Cell proliferation assay (MTS); assay type: cell-based, human
Method: as §2, §3

DMS114 = experiment: Cell proliferation assay (MTS); assay type: cell-based, human
Method: as §5, §3

IM9 = experiment: Cell proliferation assay (MTS); assay type: cell-based, human
Method: as §5, §3

5637 = experiment: Cell proliferation assay (MTS); assay type: cell-based, human
Method: as §2, §3

CFPAC1 = experiment: Cell proliferation assay (MTS); assay type: cell-based, human
Method: as §5, §3

H322 = experiment: Cell proliferation assay (MTS); assay type: cell-based, human
Method: as §2, §4

HCA7 = experiment: Cell proliferation assay (MTS); assay type: cell-based, human
Method: as §2, §4

H596 = experiment: Cell proliferation assay (MTS); assay type: cell-based, human
Method: as §2, §3

RT4 = experiment: Cell proliferation assay (MTS); assay type: cell-based, human
Method: as §2, §4

MKN1 = experiment: Cell proliferation assay (MTS); assay type: cell-based, human
Method: as §2, §3

SW620 = experiment: Cell proliferation assay (MTS); assay type: cell-based, human
Method: as §2, §4

CCn1nc(C2CCN(C(=O)CCO)CC2)nc1-c1cnc(N)c(-c2nnc(C(C)(C)C)o2)n1 [Example 3, 1-(4-(5-(5-amino-6-(5-tert-butyl-1,3,4-oxadiazol-2-yl)pyrazin-2-yl)-1-ethyl-1H-1,2,4-triazol-3-yl)piperidin-1-yl)-3-hydroxypropan-1-one]
Category (SNU484): Resistant (resistant (GI50>1.0 μM))
GI50 (SNU484; Homo sapiens, SNU-484, Stomach, PIK3CA WT): 1.79 µM
Category (SKHEP1): Resistant (resistant (GI50>1.0 μM))
GI50 (SKHEP1; Homo sapiens, SK-HEP1, Liver, PIK3CA WT): 30 µM
Category (HLF): Resistant (resistant (GI50>1.0 μM))
GI50 (HLF; Homo sapiens, Liver, PIK3CA WT): 30 µM
Category (KG1): Resistant (resistant (GI50>1.0 μM))
GI50 (KG1; Homo sapiens, KG-1, Blood/lymph, PIK3CA WT): 6.59 µM
Category (SNU398): Resistant (resistant (GI50>1.0 μM))
GI50 (SNU398; Homo sapiens, SNU-398, Liver, PIK3CA WT): 30 µM
Category (HCC15): Resistant (resistant (GI50>1.0 μM))
GI50 (HCC15; Homo sapiens, Lung, PIK3CA WT): 30 µM
Category (BFTC905): Sensitive (sensitive (GI50<=1.0 μM))
GI50 (BFTC905; Homo sapiens, BFTC-905, Bladder, PIK3CA WT): 0.966 µM
Category (MOLP8): Resistant (resistant (GI50>1.0 μM))
GI50 (MOLP8; Homo sapiens, MOLP-8, Blood/lymph, PIK3CA WT): 3.29 µM
Category (SC1): Resistant (resistant (GI50>1.0 μM))
GI50 (SC1; Homo sapiens, SC-1, Blood/lymph, PIK3CA WT): 30 µM
tumour growth (MCF7 xenograft): caused some tumour regression
Category (H2170): Resistant (resistant (GI50>1.0 μM))
GI50 (H2170; Homo sapiens, NCI-H2170, Lung, PIK3CA WT): 7.64 µM
Category (KP4): Resistant (resistant (GI50>1.0 μM))
GI50 (KP4; Homo sapiens, KP-4, Pancreas, PIK3CA WT): 15.1 µM
Category (HCT116): Resistant (resistant (GI50>1.0 μM))
GI50 (HCT116; Homo sapiens, HCT-116, Colon, PIK3CA MUT): 30 µM
Category (H1793): Resistant (resistant (GI50>1.0 μM))
GI50 (H1793; Homo sapiens, NCI-H1793, Lung, PIK3CA WT): 7.33 µM
Category (22RV1): Resistant (resistant (GI50>1.0 μM))
GI50 (22RV1; Homo sapiens, Prostate, PIK3CA MUT): 4.14 µM
Category (SKMES1): Resistant (resistant (GI50>1.0 μM))
GI50 (SKMES1; Homo sapiens, SK-MES-1, Lung, PIK3CA WT): 19.5 µM
Category (SUM52PE): Resistant (resistant (GI50>1.0 μM))
GI50 (SUM52PE; Homo sapiens, Breast, PIK3CA WT): 1.15 µM
Category (BT549): Resistant (resistant (GI50>1.0 μM))
GI50 (BT549; Homo sapiens, BT-549, Breast, PIK3CA WT): 17.4 µM
tumour growth (BT474 xenograft; Example 3 alone 25 mg/kg BID every day, FIG. 11): partially inhibited growth
tumour growth (BT474 xenograft; Example 3 alone 25 mg/kg BID, 2 days on/5 days off, vs vehicle, FIG. 10): partially inhibited tumour growth
tumour growth (BT474 xenograft; Example 3 alone 50 mg/kg BID, 2 days on/5 days off, vs vehicle, FIG. 9): partially inhibited tumour growth
Category (HEP3B): Resistant (resistant (GI50>1.0 μM))
GI50 (HEP3B; Homo sapiens, Liver, PIK3CA WT): 6.69 µM
Category (PANC1005): Resistant (resistant (GI50>1.0 μM))
GI50 (PANC1005; Homo sapiens, Pancreas, PIK3CA WT): 2.61 µM
Category (SNU739): Resistant (resistant (GI50>1.0 μM))
GI50 (SNU739; Homo sapiens, SNU-739, Liver, PIK3CA WT): 25.9 µM
Category (LS180): Resistant (resistant (GI50>1.0 μM))
GI50 (LS180; Homo sapiens, Colon, PIK3CA MUT): 9.94 µM
Category (SNU761): Resistant (resistant (GI50>1.0 μM))
GI50 (SNU761; Homo sapiens, Liver, PIK3CA WT): 18.5 µM
Category (DMS114): Resistant (resistant (GI50>1.0 μM))
GI50 (DMS114; Homo sapiens, DMS-114, Lung, PIK3CA WT): 3.29 µM
Category (IM9): Resistant (resistant (GI50>1.0 μM))
GI50 (IM9; Homo sapiens, IM-9, Blood/lymph, PIK3CA WT): 30 µM
Category 5637: Resistant (resistant (GI50>1.0 μM))
GI50 (5637; Homo sapiens, Bladder, PIK3CA WT): 9.63 µM
Category (CFPAC1): Resistant (resistant (GI50>1.0 μM))
GI50 (CFPAC1; Homo sapiens, CFPAC-1, Pancreas, PIK3CA WT): 3.38 µM
Category (H322): Resistant (resistant (GI50>1.0 μM))
GI50 (H322; Homo sapiens, NCI-H322, Lung, PIK3CA WT): 8.23 µM
Category (HCA7): Resistant (resistant (GI50>1.0 μM))
GI50 (HCA7; Homo sapiens, HCA-7, Colon, PIK3CA WT): 15.5 µM
Category (H596): Sensitive (sensitive (GI50<=1.0 μM))
GI50 (H596; Homo sapiens, NCI-H596, Lung, PIK3CA MUT): 0.302 µM
Category (RT4): Resistant (resistant (GI50>1.0 μM))
GI50 (RT4; Homo sapiens, RT-4, Bladder, PIK3CA WT): 8.94 µM
Category (MKN1): Resistant (resistant (GI50>1.0 μM))
GI50 (MKN1; Homo sapiens, MKN-1, Stomach, PIK3CA MUT): 1.58 µM
Category (SW620): Resistant (resistant (GI50>1.0 μM))
GI50 (SW620; Homo sapiens, SW-620, Colon, PIK3CA WT): 13.4 µM
